Series [1] concerns Micrococcus luteus ATCC 9341. In words: In vitro antibacterial activity, agar dilution method (MIC). Format: cell-based. The note with it: 37° C., 18-20 hrs. The protocol:
(§1) In vitro antibacterial activity was determined by the agar dilution method as described below.
(§2) One loopful of each test bacterium on a slant was inoculated into 1 ml of a growth medium (Trypto Soy Broth, Eiken Chemical Co.) and incubated at 37° C. for 18-20 hours. For the growth of Streptococci, Mueller-Hinton broth (Difco) supplemented with 3%(V/V) horse serum was employed. A hundred-fold dilution of the culture is used as an inoculum suspension of the bacterium.
(§3) The sample (9-10 mg) was weighed and dissolved in distilled water at a concentration of 2 mg/ml.
(§4) A sample solution was subjected to serial two fold dilutions with sterile water (2000-0.25 μg/ml). To sterile plastic petri dishes (9 cm in diameter) was poured 0.5 ml-aliquot of sample solutions, which was mixed with 9.5 ml of an agar medium (Sensitivity Test Agar, "Nissui"). For Streptococci, horse serum was supplied at 0.5%(V/V).
(§5) One loopful (1.0 μl) of the inoculum suspension was placed on the surface of the agar plates prepared as noted above. The bacterial growth was examined visually after overnight incubation (18-20 hrs) at 37° C.
For orientation: In agar dilution, organisms are placed on agar that contains the substance at set levels.

Series [2] concerns Staphylococcus aureus 3131 (methicillin resistant). The description is as above. It counts as cell-based. The note with it: 37° C., 18-20 hrs. The protocol:
as §1, §2, §3, §4, §5

Series [3] deals with Staphylococcus aureus ATCC 25923. The description is as above. It counts as cell-based. Particulars: 37° C., 18-20 hrs. The protocol:
as §1, §2, §3, §4, §5

In series [4] the test system is Staphylococcus aureus FDA 209F JC-1. The description is as above. Format: cell-based. The note with it: 37° C., 18-20 hrs. The protocol:
as §1, §2, §3, §4, §5

For series [5], the system named is Staphylococcus aureus SMITH. The series is described as above. It counts as cell-based. The note with it: 37° C., 18-20 hrs. The protocol:
as §1, §2, §3, §4, §5

Series [6] relates to Staphylococcus aureus SR14 (penicillin resistant). The series is described as above. Format: cell-based. The note with it: 37° C., 18-20 hrs. The protocol: as §1, §2, §3, §4, §5
Series [7] relates to Staphylococcus aureus SR1626 (methicillin resistant). Described as above. It counts as cell-based. Particulars: 37° C., 18-20 hrs. The protocol: as §1, §2, §3, §4, §5
Series [8] concerns Staphylococcus aureus SR3626 (methicillin resistant). Described as above. Format: cell-based. Particulars: 37° C., 18-20 hrs. The protocol: as §1, §2, §3, §4, §5
Series [9] has as its system Streptococcus agalactica SR1247. The description is as above. Format: cell-based. The note with it: agar dilution with 0.5% horse serum, 37° C., 18-20 hrs. The protocol: as §1, §2, §3, §4, §5
For series [10], the system named is Streptococcus faecalis SR1004. The series is described as above. Particulars: agar dilution with 0.5% horse serum, 37° C., 18-20 hrs. Format: cell-based. The protocol: as §1, §2, §3, §4, §5
Series [11] concerns Streptococcus pneumoniae Type I. The series is described as above. It counts as cell-based. Particulars: agar dilution with 0.5% horse serum, 37° C., 18-20 hrs. The protocol: as §1, §2, §3, §4, §5
In series [12] the test system is Streptococcus pyogenes C-203. Described as above. Format: cell-based. The note with it: agar dilution with 0.5% horse serum, 37° C., 18-20 hrs. The protocol: as §1, §2, §3, §4, §5
The subject of series [13] is Staphylococcus aureus SMITH. The experiment in a line: Protective test in mice (in vivo antibacterial activity). Particulars: Staphylococcus aureus SMITH i.p. challenge, Slc-ICR female mice; s.c. 1 and 5 hours post-infection; survival on day 7. The protocol: (§6) Method: Test bacterium is intraperitoneally challenged to Slc-ICR female mice (8 mice/group), to which PA-42867-A and des-(4-epi-vancosaminyl) PA-42867-A (serial two fold dilution) are subcutaneously administered 1 and 5 hours post-infection.
(§7) Result: ED50 (50% effective dose) is calculated from survival rate of mice on day 7 after the infection.

Series [14] relates to Staphylococcus aureus SR2030 (methicillin-resistant). The description is as above. The note with it: Staphylococcus aureus SR2030 (methicillin-resistant) i.p. challenge, Slc-ICR female mice; s.c. 1 and 5 hours post-infection; survival on day 7. The protocol: as §6, §7
Series [15] deals with Streptoccus pyogenes C-302. Described as above. The note with it: Streptoccus pyogenes C-302 i.p. challenge, Slc-ICR female mice; s.c. 1 and 5 hours post-infection; survival on day 7. The protocol: as §6, §7
Series [16] has as its system Streptococcus pneumoniae Type I. Described as above. The note with it: Streptococcus pneumoniae Type I i.p. challenge, Slc-ICR female mice; s.c. 1 and 5 hours post-infection; survival on day 7. The protocol:
as §6, §7

Series [17] is described as follows: Solubility (physicochemical property).
Where [18] appears, read: in ether, benzene, chloroform and ethyl acetate.

In general, MIC refers to the lowest concentration found to suppress growth. Read a low MIC as greater potency.

Converted amounts (≈) assume the structure as drawn.

On to `CN[C@H](CC(C)C)C(=O)N[C@H]1C(=O)N[C@@H](CC(N)=O)C(=O)N[C@H]2C(=O)N[C@H]3C(=O)N[C@H](C(=O)N[C@H](C(=O)O)c4cc(O)cc(O)c4-c4cc3ccc4O)[C@H](O[C@H]3C[C@](C)(N)[C@@H](O)[C@H](C)O3)c3ccc(c(Cl)c3)Oc3cc2cc(c3O[C@@H]2O[C@H](CO)[C@@H](O)[C@H](O)[C@H]2O[C@H]2C[C@](C)(N)[C@@H](O)[C@H](C)O2)Oc2ccc(cc2)[C@H]1O` [Compd. A, PA-42867-A], for which the MIC in series [1] came to 0.39 µg/mL (≈ 0.25 µM); in series [2] it was 0.78 µg/mL (≈ 0.501 µM); in series [3], 0.78 µg/mL (≈ 0.501 µM); in series [4], 0.39 µg/mL (≈ 0.25 µM); in series [5], 0.78 µg/mL (≈ 0.501 µM); in series [6], 0.78 µg/mL (≈ 0.501 µM). The MIC in series [7] turned out to be 0.78 µg/mL (≈ 0.501 µM); in [8], 0.78 µg/mL (≈ 0.501 µM); in series [9] it was 0.39 µg/mL (≈ 0.25 µM); in series [10], 1.56 µg/mL (≈ 1 µM); in series [11], 0.39 µg/mL (≈ 0.25 µM); in series [12], 0.39 µg/mL (≈ 0.25 µM). For the same compound, the “ED50 (50% effective dose)” value in series [13] came to 0.62 mg/kg/dose; in series [14], 2.31 mg/kg/dose; in series [15], 0.64 mg/kg/dose; in series [16], 0.90 mg/kg/dose. The Solubility result in series [17] (in alcohol) is given as “Slightly soluble”; in series [17] (setting [18]), “Insoluble”; in series [17] (in water and dimethylsulfoxide) it was “Soluble”.

Consider `CN[C@H](CC(C)C)C(=O)N[C@H]1C(=O)N[C@@H](CC(N)=O)C(=O)N[C@H]2C(=O)N[C@H]3C(=O)N[C@H](C(=O)N[C@H](C(=O)O)c4cc(O)cc(O)c4-c4cc3ccc4O)[C@H](O[C@H]3C[C@](C)(N)[C@@H](O)[C@H](C)O3)c3ccc(c(Cl)c3)Oc3cc2cc(c3O[C@@H]2O[C@H](CO)[C@@H](O)[C@H](O)[C@H]2O[C@H]2C[C@H](O)[C@@H](O)[C@H](C)O2)Oc2ccc(cc2)[C@H]1O` [Compd. B, PA-42867-B], for which the minimum inhibitory concentration (MIC) was determined as 1.56 µg/mL (≈ 1.01 µM) in [1]; 1.56 µg/mL (≈ 1.01 µM) in series [2]; 3.13 µg/mL (≈ 2.03 µM) in series [3]; 1.56 µg/mL (≈ 1.01 µM) in series [4]; 3.13 µg/mL (≈ 2.03 µM) in series [5]; 1.56 µg/mL (≈ 1.01 µM) in series [6]. For the same compound, the MIC was 1.56 µg/mL (≈ 1.01 µM) in [7]; 1.56 µg/mL (≈ 1.01 µM) in series [8]; 0.78 µg/mL (≈ 0.505 µM) in series [9]; 3.13 µg/mL (≈ 2.03 µM) in series [10]; 0.78 µg/mL (≈ 0.505 µM) in series [11]; 0.78 µg/mL (≈ 0.505 µM) in series [12]. Also, the Solubility entry in series [17] (in alcohol) was “Slightly soluble”; in [17] (setting [18]), “Insoluble”; in series [17] (in water and dimethylsulfoxide), “Soluble”.

On to `CN[C@H](CC(C)C)C(=O)N[C@H]1C(=O)N[C@@H](CC(N)=O)C(=O)N[C@H]2C(=O)N[C@H]3C(=O)N[C@H](C(=O)N[C@H](C(=O)O)c4cc(O)cc(O)c4-c4cc3ccc4O)[C@H](O[C@H]3C[C@](C)(N)[C@@H](O)[C@H](C)O3)c3ccc(c(Cl)c3)Oc3cc2cc(c3O[C@@H]2O[C@H](CO)[C@@H](O)[C@H](O)[C@H]2O)Oc2ccc(cc2)[C@H]1O` [Compd. C, des-(4-epi-vancosaminyl)-PA-42867-A], for which the minimal inhibitory concentration (MIC) in series [1] came out at 0.78 µg/mL (≈ 0.551 µM); in series [2] it was 1.56 µg/mL (≈ 1.1 µM); in series [3], 1.56 µg/mL (≈ 1.1 µM); in series [4], 0.78 µg/mL (≈ 0.551 µM); in series [5], 1.56 µg/mL (≈ 1.1 µM); in [6], 1.56 µg/mL (≈ 1.1 µM). For the same compound, the MIC came to 1.56 µg/mL (≈ 1.1 µM) in series [7]; 1.56 µg/mL (≈ 1.1 µM) in [8]; 0.78 µg/mL (≈ 0.551 µM) in series [9]; 1.56 µg/mL (≈ 1.1 µM) in series [10]; 0.78 µg/mL (≈ 0.551 µM) in series [11]; 0.78 µg/mL (≈ 0.551 µM) in series [12]. Besides, the “ED50 (50% effective dose)” value in series [13] is 1.47 mg/kg/dose; in [14] it was 2.91 mg/kg/dose; in series [15], 1.43 mg/kg/dose; in [16], 2.11 mg/kg/dose.

Take `CN[C@H](CC(C)C)C(=O)N[C@H]1C(=O)N[C@@H](CC(N)=O)C(=O)N[C@H]2C(=O)N[C@H]3C(=O)N[C@H](C(=O)N[C@H](C(=O)O)c4cc(O)cc(O)c4-c4cc3ccc4O)[C@H](O[C@H]3C[C@](C)(N)[C@@H](O)[C@H](C)O3)c3ccc(c(Cl)c3)Oc3cc2cc(c3O)Oc2ccc(cc2)[C@H]1O` [Compd. D, des-(4-epi-vancosaminyl-O-glucosyl)-PA-42867-A]: the MIC in series [1] was 0.78 µg/mL (≈ 0.623 µM); in [2] it was 0.78 µg/mL (≈ 0.623 µM); in series [3] it was 1.56 µg/mL (≈ 1.25 µM); in series [4] it was 0.78 µg/mL (≈ 0.623 µM); in [5], 0.78 µg/mL (≈ 0.623 µM); in series [6] it was 0.78 µg/mL (≈ 0.623 µM). Also, the MIC was determined as 0.78 µg/mL (≈ 0.623 µM) in [7]; 0.78 µg/mL (≈ 0.623 µM) in series [8]; 0.78 µg/mL (≈ 0.623 µM) in series [9]; 0.78 µg/mL (≈ 0.623 µM) in series [10]; 0.78 µg/mL (≈ 0.623 µM) in series [11]; 0.39 µg/mL (≈ 0.311 µM) in series [12].

Values taken from patent publication US4946941A, “Novel glycopeptide antibiotics” (Shionogi & Co., Ltd., priority 1986, dated 1990).
